# Reference: a melting point compilation (Tetko et al.)
row,Structure (SMILES),melting point [°C]
1,CC(=O)c1sc2nc(C)cc(C)c2c1N,174 to 176
2,CC(C)(C(O)c1ccc(Br)cc1)[N+](=O)[O-] (stereo unspecified),106 to 108
3,Nc1ccc2nc(C3CC3)oc2c1,99 to 101
4,OC(c1ccccc1)c1nc(-c2ccccc2)no1 (stereo unspecified),97 to 99
5,CCCCc1nc2cc(NC(C)=O)ccc2[nH]1,192 to 194
6,O=C(O)CCn1cnc2ccccc21,106 to 108
7,Cc1n[nH]c(C)c1S(=O)(=O)N1CCOCC1,82 to 83
8,Clc1cc(SCc2ccccc2)ncn1,71 to 73
9,O=[N+]([O-])c1ccn(C2CCCCC2O)n1 (stereo unspecified),94 to 96
10,O=S(=O)(Cl)c1ccc2nc(Cl)sc2c1,98 to 100
11,COC(=O)c1ccn2cncc2c1,93 to 95
12,COC(=O)c1c(N)sc(C)c1C,124 to 126
13,O=C(O)c1sccc1S(=O)(=O)N1CCC(CO)CC1,143 to 145
14,CNS(=O)(=O)c1ccc(Cl)c(C(F)(F)F)c1,100 to 102
15,Nc1ccc2c(c1)NC(=O)CS2,218 to 222
16,Cc1cc(Cl)c2cccc([N+](=O)[O-])c2n1,109 to 111
17,CC(C)(C)OC(=O)Nc1ccc(F)cc1N,131 to 133
18,Nc1cccc(CN2CCSCC2)c1,87 to 89
19,Cc1ccn2c(N)c(-c3ccc(F)cc3)nc2c1,188 to 190

row,Structure (SMILES),melting point [°C]
1,O=C(O)CCCOc1ccc(S(=O)(=O)Cl)cc1F,112 to 114
2,CC(=O)N1CCCc2cc(Br)ccc21,59 to 61
3,Nc1ccc(C(=O)NC2CCCC2)cc1,141 to 143
4,COC(=O)c1cc2c(OC)c(OC)c(OC)cc2[nH]1,136 to 138
5,Nc1cc([N+](=O)[O-])ccn1,96 to 98
6,CN(C)c1ccc(C#N)cn1,64 to 66
7,CCOc1ccccc1NC1=NCCS1,55 to 57
8,COC(=O)c1cnn2ccccc12,79 to 81
9,Nc1ccc(N2CCCC2)c(S(=O)(=O)Nc2cccc(C(F)(F)F)c2)c1,151 to 153
10,COC(=O)Nc1ccc(CN)cc1,103 to 105
11,COc1ccc(Cl)cc1N1CC(C(=O)O)CC1=O (stereo unspecified),150 to 155
12,COC(=O)c1cc2ccccc2n1C,69 to 71
13,COc1ccc(C(C)=O)cc1CC#N,111 to 113
14,O=[N+]([O-])c1ccc(Oc2ccc([N+](=O)[O-])cc2)cc1,144 to 146
15,Clc1cc(N2CCCC2)ncn1,93 to 95
16,Cc1nn2cnnc2[nH]c1=O,195 to 197
17,O=C(O)c1cccc(-n2ccc(C(F)(F)F)n2)c1,159 to 161
18,CN(C)C(=O)c1cc(S(=O)(=O)Cl)cn1C,105 to 107
19,Cc1c(C(=O)O)c(O)nc2ccccc12,254 to 256

row,Structure (SMILES),melting point [°C]
1,Nc1ccncc1C(=O)C(F)(F)F,170 to 172
2,Cc1cc(N)ccc1C(=O)N(C)C,162 to 164
3,O=C(O)CCCCN1C(=O)C=CC1=O,84 to 86
4,Nc1ncn(C2CCCCC2)n1,129 to 131
5,COc1ccc(C(=O)O)cc1S(=O)(=O)N1CCCc2ccccc21,211 to 213
6,CCc1ccc(CC)c(-c2csc(N)n2)c1,66 to 68
7,O=C(O)c1cc(S(=O)(=O)N2CCOCC2)c(Cl)cc1Cl,183 to 185
8,Cc1c(-c2csc(N)n2)sc2ccccc12,170 to 172
9,O=C(O)C=Cc1ccc(-n2cc(Br)cn2)c(F)c1,204 to 206
10,COc1cc([N+](=O)[O-])cc2sc(N)nc12,279 to 281
11,CCc1ncc(C(=O)O)s1,151 to 153
12,CC(C)(C)C(=O)NO,169 to 171
13,Cc1nn(-c2ccccc2)c(C)c1N,61 to 63
14,COc1ccc(Br)cc1C(N)=S,143 to 145
15,O=C(O)c1ccc(Oc2ccc(Br)cc2)nc1,175 to 177
16,Cc1ccc(C(=O)N=[N+]=[N-])o1,33 to 35
17,O=C(O)C1CCN(c2ccc3cccc(O)c3n2)CC1,281 to 283
18,CN1CCN(C(=O)Cn2cc(N)cn2)CC1,119 to 121
